Assay [1] has as its system L6-myotubes. The assay is described as follows: Glucose uptake in differentiated L6-myotubes (3H-2-deoxyglucose), compared to isoproterenol. Format: cell-based. Conditions: agonist 1×10^−5 M, 50 nM 3H-2-deoxyglucose; for Emax at 10 µM: read-out: Biological example 1: glucose uptake, activity compared to that of isoproterenol. A digest of the protocol: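 Serum-starved differentiated L6 myotubes stimulated with agonist at 1×10^−5 M for 1 h 40 min, re-dosed in glucose-free medium for 20 min, then given 50 nM ^3H-2-deoxyglucose for 10 min. Uptake read by β-counting of NaOH lysates; activity expressed relative to isoproterenol.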

Assay [2] concerns L6-myotubes. The assay is described as follows: Measurement of intracellular cAMP levels in differentiated L6 cells (alpha screen cAMP kit), compared to isoproterenol. It counts as cell-based. Conditions: agonist 1×10^−5 M, 15 min; for Emax at 10 µM: Rattus norvegicus, L6, 0.25 h, read-out: Biological example 2: intracellular cAMP levels, activity compared to that of isoproterenol. A digest of the protocol: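 L6 myoblasts were differentiated into myotubes over 7 days in 2% FBS, then serum-starved overnight. Agonist at 1×10^−5 M final was applied for 15 min in HBSS with 1% BSA, 5 mM HEPES and 1 mM IBMX, pH 7.4. After ethanol extraction and lysis, cAMP was quantified by AlphaScreen, with activity expressed relative to isoproterenol.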
For orientation: Changes in cAMP serve as a functional read-out for many G protein-coupled receptors.

Counter-ions that a name gives are not always drawn. Bounds are passed on as bounds.

As for `CC(C)(NC[C@H](O)c1cncc(F)c1)[C@H]1CC[C@H](NS(C)(=O)=O)CC1` [Example 83, N-((1R,4r)-4-(2-(((R)-2-(5-Fluoropyridin-3-yl)-2-hydroxyethyl)amino)-propan-2-yl)cyclohexyl)methanesulfonamide], the Emax at 10 µM with L6-myotubes [1] is 25 to 50%; in the assay with L6-myotubes [2], below 25%.

As for `CN(C)S(=O)(=O)[C@H]1CC[C@@H](CC(C)(C)NC[C@H](O)c2cccc(F)c2)CC1.Cl` [Example 188, (1S,4s)-4-(2-(((R)-2-(3-fluorophenyl)-2-hydroxyethyl)amino)-2-methyl-propyl)-N,N-dimethylcyclohexane-1-sulfonamide hydrochloride], the “Biological example 1: glucose uptake, activity compared to that of isoproterenol” value in the assay on L6-myotubes [1] was “+ + +”. Besides, the Emax at 10 µM in the assay on L6-myotubes [2] fell in the range of 25 to 50%.

As to `CC(=O)N(C)[C@H]1CC[C@H](CC(C)(C)NC[C@H](O)c2cccc(F)c2)CC1.Cl` [Example 178, N-((1R,4r)-4-(2-(((R)-2-(3-Fluorophenyl)-2-hydroxyethyl)amino)-2-methylpropyl)cyclohexyl)-N-methylacetamide hydrochloride], in the assay on L6-myotubes [1], the “Biological example 1: glucose uptake, activity compared to that of isoproterenol” value is recorded as “+ + +”. In addition, the Emax at 10 µM in the assay on L6-myotubes [2] was below 25%.

With `CO[C@H]1CC[C@@H](CCNC[C@H](O)c2cncc(F)c2)CC1` [Example 10, (R)-1-(5-Fluoropyridin-3-yl)-2-((2-((1s,4S)-4-methoxycyclohexyl)ethyl)-amino)ethan-1-ol], in the assay on L6-myotubes [1], the “Biological example 1: glucose uptake, activity compared to that of isoproterenol” value is reported as “+ + +”. Moreover, in the assay with L6-myotubes [2], the Emax at 10 µM was below 25%.

Take `COC(=O)[C@H]1CC[C@H](C(C)(C)NC[C@H](O)c2cccc(F)c2)CC1` [Example 99, Methyl (1R,4r)-4-(2-(((R)-2-(3-fluorophenyl)-2-hydroxyethyl)amino)propan-2-yl)cyclohexane-1-carboxylate]: the “Biological example 1: glucose uptake, activity compared to that of isoproterenol” value in the assay with L6-myotubes [1] is reported as “+ + +”. The Emax at 10 µM with L6-myotubes [2] is below 25%.

With `CC(C)(NC[C@H](O)c1cccc(F)c1)[C@H]1CC[C@@H](OCc2ccccc2)CC1` [Example 33, (R)-2-((2-((1s,4S)-4-(Benzyloxy)cyclohexyl)propan-2-yl)amino)-1-(3-fluorophenyl)ethan-1-ol], in the assay on L6-myotubes [1], the “Biological example 1: glucose uptake, activity compared to that of isoproterenol” value was “+ +”. For the same molecule, the Emax at 10 µM in the assay with L6-myotubes [2] is below 25%.

For the molecule `CO[C@H]1CC[C@@H](CCCNC[C@H](O)c2cncc(F)c2)CC1` [Example 20, (R)-1-(5-Fluoropyridin-3-yl)-2-((3-((1s,4R)-4-methoxycyclohexyl)propyl)-amino)ethan-1-ol], the “Biological example 1: glucose uptake, activity compared to that of isoproterenol” value with L6-myotubes [1] is reported as “+ + +”. The Emax at 10 µM with L6-myotubes [2] was below 25%.

In the case of `CC(C)(C[C@H]1CC[C@H](S(N)(=O)=O)CC1)NC[C@H](O)c1cncc(F)c1` [Example 195, (1R,4r)-4-(2-(((R)-2-(5-Fluoropyridin-3-yl)-2-hydroxyethyl)amino)-2-methylpropyl)cyclohexane-1-sulfonamide dihydrochloride], the “Biological example 1: glucose uptake, activity compared to that of isoproterenol” value in the assay on L6-myotubes [1] is recorded as “+ + +”. In addition, the Emax at 10 µM with L6-myotubes [2] is below 25%.

For `O[C@@H](CNCC[C@H]1CC[C@H](O)CC1)c1cncc(F)c1` [Example 48, (1R,4r)-4-(2-(((R)-2-(5-Fluoropyridin-3-yl)-2-hydroxyethyl)amino)-ethyl)cyclohexan-1-ol], the Emax at 10 µM with L6-myotubes [1] was 25 to 50%; in the assay on L6-myotubes [2] it was below 25%.

As for `CC(C)(C[C@H]1CC[C@@H](NC(=O)OC(C)(C)C)CC1)NC[C@H](O)c1cccc(C(F)(F)F)n1` [Example 147, tert-Butyl ((1R,4s)-4-(2-(((S)-2-hydroxy-2-(6-(trifluoromethyl)pyridin-2-yl)ethyl)amino)-2-methylpropyl)cyclohexyl)carbamate], the “Biological example 1: glucose uptake, activity compared to that of isoproterenol” value in the assay on L6-myotubes [1] was “+ +”. Moreover, the Emax at 10 µM with L6-myotubes [2] is below 25%.

As for `Cc1ncccc1[C@@H](O)CNC(C)(C)C[C@H]1CC[C@H](NS(C)(=O)=O)CC1` [Example 146, N-((1R,4r)-4-(2-(((R)-2Hydroxy-2-(2-methylpyridin-3-yl)ethyl)amino)-2-methylpropyl)cyclohexyl)methanesulfonamide dihydrochloride], in the assay with L6-myotubes [1], the “Biological example 1: glucose uptake, activity compared to that of isoproterenol” value is “+ +”. Also, the Emax at 10 µM in the assay on L6-myotubes [2] was below 25%.

Turning to `CC(=O)N(C)[C@H]1CC[C@@H](CC(C)(C)NC[C@H](O)c2cncc(F)c2)CC1.Cl` [Example 184, N-((1S,4s)-4-(2-(((R)-2-(5-Fluoropyridin-3-yl)-2-hydroxyethyl)amino)-2-methylpropyl)cyclohexyl)-N-methylacetamide], the “Biological example 1: glucose uptake, activity compared to that of isoproterenol” value with L6-myotubes [1] is given as “+ + +”. Besides, in the assay on L6-myotubes [2], the Emax at 10 µM is below 25%.

In the case of `CO[C@H]1CC[C@@H](CNC[C@H](O)c2cncc(F)c2)CC1` [Example 2, (R)-1-(5-Fluoropyridin-3-yl)-2-((((1s,4S)-4-methoxycyclohexyl)-methyl)amino)ethan-1-ol], the “Biological example 1: glucose uptake, activity compared to that of isoproterenol” value in the assay with L6-myotubes [1] is listed as “+ +”. In the assay with L6-myotubes [2], the Emax at 10 µM was below 25%.

For `CC(C)(C[C@H]1CC[C@@H](S(N)(=O)=O)CC1)NC[C@H](O)c1cncc(F)c1` [Example 197, (1S,4s)-4-(2-(((R)-2-(5-Fluoropyridin-3-yl)-2-hydroxyethyl)amino)-2-methylpropyl)cyclohexane-1-sulfonamide dihydrochloride], in the assay on L6-myotubes [1], the “Biological example 1: glucose uptake, activity compared to that of isoproterenol” value is “+ + +”. Further, the Emax at 10 µM with L6-myotubes [2] was below 25%.

`CC(=O)N[C@H]1CC[C@@H](CC(C)(C)NC[C@H](O)c2cncc(F)c2)CC1` [Example 176, N-((1S,4s)-4-(2-(((R)-2-(5-Fluoropyridin-3-yl)-2-hydroxyethyl)amino)-2-methylpropyl)cyclohexyl)acetamide]: in the assay on L6-myotubes [1], the “Biological example 1: glucose uptake, activity compared to that of isoproterenol” value is recorded as “+ + +”. The Emax at 10 µM in the assay on L6-myotubes [2] is below 25%.

In the case of `CC(C)(C[C@H]1CC[C@@H](O)CC1)NC[C@H](O)c1cncc(F)c1.Cl` [Example 50, (1S,4s)-4-(2-(((R)-2-(5-Fluoropyridin-3-yl)-2-hydroxyethyl)amino)-2-methylpropyl)cyclohexan-1-ol hydrochloride], the “Biological example 1: glucose uptake, activity compared to that of isoproterenol” value in the assay with L6-myotubes [1] is “+ + +”. For the same molecule, the Emax at 10 µM in the assay on L6-myotubes [2] was below 25%.

On to `CC(C)(C[C@H]1CC[C@H](NS(C)(=O)=O)CC1)NC[C@H](O)c1cccc(C#N)n1` [Example 140, N-((1S,4r)-4-(2-(((S)-2-(6-Cyanopyridin-2-yl)-2-hydroxyethyl)amino)-2-methylpropyl)cyclohexyl)methanesulfonamide], for which the “Biological example 1: glucose uptake, activity compared to that of isoproterenol” value with L6-myotubes [1] is reported as “+ + +”. In addition, the Emax at 10 µM in the assay with L6-myotubes [2] was below 25%.

`CO[C@H]1CC[C@H](C(C)(C)NC[C@H](O)c2cncc(F)c2)CC1` [Example 8, (R)-1-(5-Fluoropyridin-3-yl)-2-((2-((1r,4R)-4-methoxycyclohexyl)propan-2-yl)amino)ethan-1-ol]: in the assay with L6-myotubes [1], the “Biological example 1: glucose uptake, activity compared to that of isoproterenol” value was “+ + +”. In addition, in the assay on L6-myotubes [2], the Emax at 10 µM was below 25%.

Turning to `CN(C)S(=O)(=O)[C@H]1CC[C@@H](CC(C)(C)NC[C@H](O)c2cncc(F)c2)CC1` [Example 189, (1S,4s)-4-(2-(((R)-2-(5-Fluoropyridin-3-yl)-2-hydroxyethyl)amino)-2-methylpropyl)-N,N-dimethylcyclohexane-1-sulfonamide dihydrochloride], the “Biological example 1: glucose uptake, activity compared to that of isoproterenol” value in the assay with L6-myotubes [1] is listed as “+ + +”. For the same molecule, the “Biological example 2: intracellular cAMP levels, activity compared to that of isoproterenol” value in the assay with L6-myotubes [2] was “+ +”.

These data come from US20240390298A1, “CYCLOHEXYL BETA-HYDROXY ALKYL AMINES AND MEDICAL USES THEREOF” (ATROGI AB, priority 2021, published 2024).
